Measured values from DBAASP.
Values after ≈ are worked out from the molar mass of the structure shown. One block for each compound: values may come before it.

Tests used:
Assay in all cases: ≥ marks a high value that may be exact or a test limit, other limits are often not marked, values filed in µg/mL are converted to µM
Escherichia coli UB1005 = tested on: Escherichia coli UB1005
[1] = tested on: Staphylococcus aureus ATCC 29213
[2] = tested on: Staphylococcus epidermidis ATCC 12228
[3] = tested on: Pseudomonas aeruginosa ATCC 27853
[4] = tested on: Salmonella enterica subsp. enterica serovar Pullorum C79-13
[5] = tested on: Escherichia coli ATCC 25922
[6] = tested on: Enterococcus faecalis ATCC 29212
[7] = tested on: Staphylococcus aureus ATCC 43300
[8] = tested on: Bacillus subtilis CMCC 63501
[9] = tested on: Salmonella typhimurium ATCC 7731
Escherichia coli 1005 = tested on: Escherichia coli 1005
[10] = tested on: Candida parapsilosis CGMCC 2.3989
[11] = tested on: Candida krusei CGMCC 2.1857
[12] = tested on: Salmonella enterica subsp. enterica serovar Typhimurium ATCC 14028
[13] = tested on: Salmonella enterica subsp. enterica serovar Pullorum ATCC 7913
[14] = tested on: Staphylococcus aureus ATCC 25923
Candida albicans = tested on: Candida albicans
[15] = tested on: Candida tropicalis CGMCC 2.1975
[16] = tested on: Salmonella enterica subsp. enterica serovar Typhi CMCC 50071
[17] = tested on: Salmonella enterica subsp. enterica CMCC 47020
[18] = tested on: Salmonella enterica subsp. enterica serovar Typhimurium C77-31
[19] = tested on: Bacillus cereus CMCC 6303
[20] = tested on: Listeria monocytogenes CMCC 54004
[21] = tested on: Staphylococcus aureus CMCC 26074
[22] = tested on: Cronobacter sakazakii ATCC 29544
[23] = tested on: Pseudomonas aeruginosa ATCC 10145
[24] = tested on: Cryptococcus neoformans ATCC 32045
[25] = tested on: Escherichia coli ATCC 2592
[26] = tested on: Staphylococcus aureus ATCC 33591
[27] = tested on: Candida albicans ATCC 10231
Escherichia coli K88 = tested on: Escherichia coli K88
[28] = tested on: Lacticaseibacillus rhamnosus 8014
[29] = tested on: Streptococcus agalactiae BNCC 185941
[30] = tested on: Lacticaseibacillus rhamnosus 1.0936
[31] = tested on: Lacticaseibacillus rhamnosus 1.9021
[32] = tested on: Salmonella enterica subsp. enterica serovar Choleraesuis CVCC 503
[33] = tested on: Lacticaseibacillus rhamnosus 1.0911
[34] = tested on: Pseudomonas aeruginosa PAO1
[35] = tested on: Escherichia coli O157:H7 CICC 21530

MIC (Escherichia coli UB1005): 8 µM (≈ 14 µg/mL) | MIC [1]: 8 µM (≈ 14 µg/mL) | MIC [2]: 16 µM (≈ 28.1 µg/mL) | MIC [3]: 16 µM (≈ 28.1 µg/mL) | MIC [4]: 16 µM (≈ 28.1 µg/mL) | MIC [5]: 16 µM (≈ 28.1 µg/mL) | MIC [6]: 16 µM (≈ 28.1 µg/mL) | MIC [7]: 16 µM (≈ 28.1 µg/mL) | MIC [8]: ≥ 32 µM | MIC [9]: 16 µM (≈ 28.1 µg/mL)
Structure (SMILES): CC[C@H](C)[C@H](N)C(=O)N[C@@H](Cc1cnc[nH]1)C(=O)N[C@@H](CCCCN)C(=O)N[C@@H](Cc1ccccc1)C(=O)N[C@@H](Cc1c[nH]c2ccccc12)C(=O)N[C@@H](CCCN=C(N)N)C(=O)N[C@@H](CCCN=C(N)N)C(=O)N[C@@H](Cc1c[nH]c2ccccc12)C(=O)N[C@@H](Cc1ccccc1)C(=O)N[C@@H](CCCCN)C(=O)N[C@@H](Cc1cnc[nH]1)C(=O)N[C@H](C(N)=O)[C@@H](C)CC [IHKFWRRWFKHI]

MIC [1]: 8 µM (≈ 13.5 µg/mL) | MIC [2]: 4 µM (≈ 6.76 µg/mL) | MIC (Escherichia coli 1005): 8 µM (≈ 13.5 µg/mL) | MIC [10]: ≥ 64 µM | MIC [11]: 2 µM (≈ 3.38 µg/mL) | MIC [12]: 4 µM (≈ 6.76 µg/mL) | MIC [13]: 4 µM (≈ 6.76 µg/mL) | MIC [7]: 4 µM (≈ 6.76 µg/mL) | MIC [14]: 4 µM (≈ 6.76 µg/mL) | MIC (Candida albicans): 5.66 µM (≈ 9.56 µg/mL) | MIC [15]: 2 µM (≈ 3.38 µg/mL)
Structure (SMILES): NC(=O)[C@H](CCCN=C(N)N)NC(=O)[C@H](Cc1ccccc1)NC(=O)[C@H](Cc1ccccc1)NC(=O)[C@H](CCCN=C(N)N)NC(=O)[C@H](CCCN=C(N)N)NC(=O)[C@H](Cc1ccccc1)NC(=O)[C@H](CCCN=C(N)N)NC(=O)[C@H](CCCN=C(N)N)NC(=O)[C@H](Cc1ccccc1)NC(=O)[C@H](Cc1ccccc1)NC(=O)[C@@H](N)CCCN=C(N)N [RFFRRFRRFFR]

MIC (Escherichia coli UB1005): ≥ 256 µM | MIC [16]: ≥ 256 µM | MIC [17]: ≥ 256 µM | MIC [12]: 128 µM (≈ 209 µg/mL) | MIC [18]: ≥ 256 µM | MIC [19]: ≥ 128 µM | MIC [20]: ≥ 32 µM | MIC [4]: ≥ 256 µM | MIC [14]: > 256 µM | MIC [21]: ≥ 256 µM | MIC [22]: ≥ 256 µM
Structure (SMILES): CC[C@H](C)[C@H](NC(=O)[C@H](CCCN=C(N)N)NC(=O)[C@H](CCCN=C(N)N)NC(=O)[C@H](CCCCN)NC(=O)[C@@H](N)CCCN=C(N)N)C(=O)N[C@H](C(=O)N[C@H](C(=O)N[C@H](C(=O)N[C@@H](CCCN=C(N)N)C(=O)N[C@@H](CCCN=C(N)N)C(=O)N[C@@H](CCCCN)C(=O)N[C@@H](CCCN=C(N)N)C(N)=O)[C@@H](C)CC)C(C)C)C(C)C [RKRRIVVIRRKR]

MIC [23]: ≥ 1010 µM | MIC [24]: ≥ 1010 µM | MIC [25]: ≥ 507 µM | MIC [26]: ≥ 1010 µM | MIC [27]: > 1010 µM
Structure (SMILES): C[C@H](NC(=O)[C@H](Cc1ccccc1)NC(=O)[C@@H](N)CCCCN)C(=O)N[C@@H](CCCCN)C(=O)O [KFAK]

MIC [23]: ≥ 39 µM | MIC [24]: 19.6 µM (≈ 63 µg/mL) | MIC [25]: 13.7 µM (≈ 43.8 µg/mL) | MIC [27]: > 78 µM
Structure (SMILES): C[C@H](NC(=O)[C@H](CCCCN)NC(=O)[C@H](CCCCN)NC(=O)[C@H](CCCCN)NC(=O)[C@H](C)NC(=O)[C@H](CCCCN)NC(=O)[C@H](CCCCN)NC(=O)[C@H](CCCCN)NC(=O)[C@H](C)NC(=O)[C@H](CCCCN)NC(=O)[C@H](CCCCN)NC(=O)[C@H](CCCCN)NC(=O)[C@H](C)NC(=O)[C@H](CCCCN)NC(=O)[C@H](CCCCN)NC(=O)[C@H](CCCCN)NC(=O)[C@H](C)NC(=O)[C@H](CCCCN)NC(=O)[C@H](CCCCN)NC(=O)[C@H](CCCCN)NC(=O)[C@H](C)NC(=O)[C@H](CCCCN)NC(=O)[C@H](CCCCN)NC(=O)[C@H](CCCCN)NC(=O)[C@H](C)NC(=O)[C@H](CCCCN)NC(=O)[C@@H](N)CCCCN)C(=O)N[C@@H](CCCCN)C(=O)O [KKAKKKAKKKAKKKAKKKAKKKAKKKAK]

MIC (Escherichia coli K88): 2 µM (≈ 2.74 µg/mL) | MIC [28]: ≥ 128 µM | MIC [1]: 32 µM (≈ 43.9 µg/mL) | MIC [29]: ≥ 128 µM | MIC [2]: 32 µM (≈ 43.9 µg/mL) | MIC [3]: 8 µM (≈ 11 µg/mL) | MIC [30]: ≥ 32 µM | MIC [12]: 128 µM (≈ 175 µg/mL) | MIC [4]: 2 µM (≈ 2.74 µg/mL) | MIC [31]: ≥ 32 µM | MIC [7]: 32 µM (≈ 43.9 µg/mL) | MIC [33]: 16 µM (≈ 21.9 µg/mL) | MIC [34]: 16 µM (≈ 21.9 µg/mL) | MIC [35]: 8 µM (≈ 11 µg/mL)
Structure (SMILES): CC(C)C[C@H](NC(=O)[C@H](Cc1c[nH]c2ccccc12)NC(=O)[C@H](CC(C)C)NC(=O)[C@@H](NC(=O)[C@H](CC(C)C)NC(=O)[C@H](CCCCN)NC(=O)[C@@H](N)CCCCN)[C@@H](C)O)C(=O)N[C@H](C(=O)N[C@@H](CC(C)C)C(=O)N[C@@H](CCCCN)C(=O)N[C@@H](CCCCN)C(N)=O)[C@@H](C)O [KKLTLWLTLKK]
MIC [32]: 8 µM (≈ 11 µg/mL)

MIC [1]: 4 µM (≈ 6.08 µg/mL) | MIC [2]: 4 µM (≈ 6.08 µg/mL) | MIC (Escherichia coli 1005): 4 µM (≈ 6.08 µg/mL) | MIC [10]: 8 µM (≈ 12.2 µg/mL) | MIC [11]: 4 µM (≈ 6.08 µg/mL) | MIC [12]: 8 µM (≈ 12.2 µg/mL) | MIC [13]: 8 µM (≈ 12.2 µg/mL) | MIC [7]: 8 µM (≈ 12.2 µg/mL) | MIC [14]: 8 µM (≈ 12.2 µg/mL) | MIC (Candida albicans): 5.66 µM (≈ 8.6 µg/mL) | MIC [15]: 2 µM (≈ 3.04 µg/mL)
Structure (SMILES): CC(C)C[C@H](NC(=O)[C@H](CC(C)C)NC(=O)[C@H](CCCN=C(N)N)NC(=O)[C@H](CCCN=C(N)N)NC(=O)[C@H](CC(C)C)NC(=O)[C@H](CCCN=C(N)N)NC(=O)[C@H](CCCN=C(N)N)NC(=O)[C@H](CC(C)C)NC(=O)[C@H](CC(C)C)NC(=O)[C@@H](N)CCCN=C(N)N)C(=O)N[C@@H](CCCN=C(N)N)C(N)=O [RLLRRLRRLLR]

MIC (Escherichia coli K88): ≥ 64 µM | MIC [28]: ≥ 128 µM | MIC [1]: > 128 µM | MIC [29]: ≥ 128 µM | MIC [2]: > 128 µM | MIC [3]: > 128 µM | MIC [30]: ≥ 128 µM | MIC [12]: > 128 µM | MIC [4]: ≥ 64 µM | MIC [5]: > 128 µM | MIC [31]: ≥ 128 µM | MIC [7]: > 128 µM | MIC [33]: ≥ 128 µM | MIC [34]: > 128 µM | MIC [35]: ≥ 128 µM
Structure (SMILES): CC(C)C[C@H](NC(=O)CNC(=O)[C@H](Cc1c[nH]c2ccccc12)NC(=O)CNC(=O)[C@H](CC(C)C)NC(=O)[C@H](CC(C)C)NC(=O)[C@H](CCCCN)NC(=O)[C@@H](N)CCCCN)C(=O)N[C@@H](CC(C)C)C(=O)N[C@@H](CCCCN)C(=O)N[C@@H](CCCCN)C(N)=O [KKLLGWGLLKK]
MIC [32]: ≥ 128 µM
